# Patent US20230321106A1, “USE OF TOPICAL BRAF INHIBITOR COMPOSITIONS FOR TREATMENT OF EPIDERMAL GROWTH FACTOR RECEPTOR DOWNSTREAM EFFECTORS - INDUCED CUTANEOUS REACTIONS” (Lutris Pharma Ltd., priority 2020, published 2023)
# Entries after “also recorded” stand apart in the source; their conditions may differ.
# Key:
# [1] = system: phosphorylated ERK1/2 (MAPK pathway) in HKGS-activated HEKa cells; test: Reversal of EGFR inhibitor-mediated pERK inhibition in HKGS-activated HEKa cells, Western blot; type: cell-based, human; settings: two hours
# Procedure: Primary HEKa, isolated from adult skin of a single donor and cryopreserved at the end of primary culture (Gibco catalog number C0055C, Thermo Fisher Scientific, Waltham, MA), were cultured in T25 flasks at 37° C., 5% CO2 in growth medium (Epilife™ CF Kit, Gibco) supplemented with 60 μM calcium (Gibco) and HKGS (Gibco). After at least three passages, cells were harvested with trypsin when flask reached 70-80% confluence, and seeded in 10 cm culture dishes (250,000 cells/dish) in 9 ml of growth medium overnight. To analyze the effect of HKGS or a BRAF inhibitor on pERK, cells were starved for 2.5 hours in 5 mL of starvation medium without HKGS, and then individual plates were incubated for two hours with DMSO 0.1%, HKGS, vemurafenib 0.3 μM (0.146 μg/mL), or LUT014 0.3 μM (0.158 μg/mL). […] Cells were harvested with 1 ml cold PBS containing EDTA-free, phosphatase inhibitor cocktail (MilliporeSigma, Burlington, MA) using a cell scraper. […] The signals of phosphorylated ERK1/2 and total ERK2 were quantified using ImageJ software and the phosphorylated ERK1/2/total ERK2 ratio was calculated. For the quantification, equal sized rectangles were drawn around the bands of the phosphorylated ERK1/2 and the total ERK2 and the pixels in each rectangle were measured.
# [2] = system: phosphorylated ERK1/2 (MAPK pathway) in primary adult human epidermal keratinocytes (HEKa); test: pERK induction in HEKa cells, Western blot (phosphorylated ERK1/2 / total ERK2); type: cell-based; settings: 0.3 μM, two hours
# Procedure: Primary HEKa, isolated from adult skin of a single donor and cryopreserved at the end of primary culture (Gibco catalog number C0055C, Thermo Fisher Scientific, Waltham, MA), were cultured in T25 flasks at 37° C., 5% CO2 in growth medium (Epilife™ CF Kit, Gibco) supplemented with 60 μM calcium (Gibco) and HKGS (Gibco). After at least three passages, cells were harvested with trypsin when flask reached 70-80% confluence, and seeded in 10 cm culture dishes (250,000 cells/dish) in 9 ml of growth medium overnight. To analyze the effect of HKGS or a BRAF inhibitor on pERK, cells were starved for 2.5 hours in 5 mL of starvation medium without HKGS, and then individual plates were incubated for two hours with DMSO 0.1%, HKGS, vemurafenib 0.3 μM (0.146 μg/mL), or LUT014 0.3 μM (0.158 μg/mL). To analyze the effects of LUT014 to re-activate pERK in HKGS-activated HEKa cells cultured in an EGFR inhibitor, cells were seeded in 60 mm dishes (120,000 cells/dish) in 4 ml growth medium. […] The signals of phosphorylated ERK1/2 and total ERK2 were quantified using ImageJ software and the phosphorylated ERK1/2/total ERK2 ratio was calculated. For the quantification, equal sized rectangles were drawn around the bands of the phosphorylated ERK1/2 and the total ERK2 and the pixels in each rectangle were measured.
# MIA-PaCa-2 cells = test: MIA-PaCa-2 cellular proliferation (ATP-lite, 72 hours); type: cell-based, human
# Procedure: MIA-PaCa-2 cells (ATCC catalog number CRM-CRL-1420, Manassas, VA) were cultured at 37° C. in T75 flasks in growth medium DMEM (ATCC) supplemented with 10% FBS and 2.5% horse serum. After 4 days, when the flasks reached 50% confluence, cells were harvested with trypsin and seeded in 96 well plates at a concentration of 5000 cells/well, in a total volume of 0.1 ml/well starvation medium and incubated 24 hours at 37° C., 5% CO2. The next morning, medium was replaced with 180 μl growth medium (containing 10% FBS and 2.5% horse serum) and 20 μl of each concentration of LUT014, DMSO or PBS. Each concentration of each compound was added to triplicate wells. The plates were incubated for 72 hours at 37° C., 5% CO2. Cellular proliferation was measured using the ATP-lite proliferation assay (Perkin Elmer, Waltham, MA) following the manufacturer's instructions, with the luminescence measured using a CLARIOstar reader (BMG Labtech, Ortenberg, Germany), and analyzed with the ATPlite TOP program (Perkin Elmer).
# [3] = Phase 1 clinical trial of topical LUT014 gel: safety and tolerability; type: in vivo, human
# From the text: This was an open-label, dose escalation study of LUT014 gel topically administered for four weeks. A 2-week screening period (day −14 to day −1) was followed by a 4-week treatment period (day 0 to day 27). Patients applied the study drug once daily to their face, neck, chest, and upper back. The post-treatment safety follow-up period ran from day 28 to day 55. Additionally, two long term safety follow up visits were done 3 and 6 months after completion of treatment, including a dermatological exam to detect any potential BRAF inhibitor skin toxicities within the treatment area.
# Three dose levels of LUT014 gel were tested: 0.3 mg/g, 1.0 mg/g and 2.5 mg/g. The dose of LUT014 was escalated in sequential dose cohorts of 3 to 6 patients, in a conventional 3+3 escalating dose design. Escalation to the next dose level was permitted if no DLT was reported by the three patients in the cohort within 4 weeks of receiving the first dose of LUT014. If one out of three patients developed a dose limiting toxicity (DLT), additional three patients were planned to be treated with study drug at the same dose level. At any given dose level, if more than one out of the three or six patients experienced a DLT within 4 weeks of receiving the first dose of LUT014, the dose level was determined to have exceeded the MTD, and the MTD was set to be the next lower dose.
# A DLT was defined as any treatment-emergent grade 2 or higher clinically significant adverse event, with the exception of a transient grade 2 adverse event (i.e., one that returns to grade 1 or baseline within 7 days) or grade 2 adverse event that was manageable with standard of care (i.e., one that returns to grade 1 or baseline within 14 days), that occurred within 4 weeks of the first dose of study drug for which there was a reasonable possibility that LUT014 had caused the event. Upon completion of the 4-week treatment period of the third patient in each dosing cohort, a Safety Review Committee (SRC) meeting was set to review the safety data and to provide recommendation/decision on dose escalation/de-escalation, or expansion of dosing cohort.
# Safety and tolerability were assessed primarily based on the adverse events from day 0 to day 55. In addition to the adverse events assessment, the safety measurements included physical examination, vital signs and body weight, 12-lead ECG, ECOG performance status, safety labs including complete blood count, comprehensive metabolic panel and urinalysis. At 3 and 6 months […] a dermatologist performed a skin assessment of the areas of the skin where LUT014 gel was applied to screen for potential cutaneous toxicities known to be associated with approved BRAF inhibitors, including erythema nodosum-type rash, photosensitivity, squamous papillomas or warts, keratoacanthomas, cutaneous squamous cell carcinoma, dry skin, and folliculitis or cysts (Welsh, et al., Therapeutic advances in medical oncology 7, 122-136, 2015).
# [4] = Phase 1 clinical trial: plasma pharmacokinetics (LC-MS/MS); type: in vivo, human; settings: patients, topical gel; for systemic absorption / exposure after topical administration: plasma
# Procedure: Blood samples for PK analysis were taken from the initial three patients enrolled to each dosing cohort (total 9 patients). PK samples were collected pre-dose on day 0 and day 7 and at 1, 2, 4, 8 and 24 hours post-dose. A qualified liquid chromatography tandem mass spectroscopy LC-MS/MS analytical assay with an LLOQ of 10 pg/ml was used to determine concentrations of LUT014 in plasma. Plasma concentrations below the limit of quantitation (<10 pg/mL) were treated as zero for the calculations of mean (SD).
# Tabular summaries of the secondary safety assessments included descriptive statistics (i.e., mean, standard deviation, median, and range for continuous data and frequency for categorical data) for each visit assessed, as well as for the calculated changes from baseline. For the pharmacokinetics analyses, plasma LUT014 concentration-time profiles were analyzed by non-compartmental methods and PK parameters were calculated by standard equations, when plasma levels are achieved. PK analyses produced using Phoenix® WinNonLin (Certara, Princeton, NJ). The efficacy assessments NCI CTCAE skin and subcutaneous tissue disorders grading scale, MASCC Study Group EGFR Inhibitor-dermatologic adverse event grading scale, FACT-EGFRI-13 questionnaire, were summarized by treatment group using descriptive statistics as appropriate (i.e., mean, standard deviation, median, and range for continuous data and frequency for categorical data). All analyses were performed using SAS® Software (version 9.2, SAS Institute, Cary, NC).
# [5] = system: anti-EGFR therapy-induced acneiform lesions; test: Phase 1 clinical trial: efficacy on acneiform lesions (CTCAE, MASCC, FACT-EGFRI-13); type: in vivo, human
# Procedure: Three scales were used to evaluate the severity of acneiform lesions during the clinical trial period. The primary readout was based on the National Cancer Institute (NCI) Common Terminology Criteria for Adverse Events (CTCAE) version 5.0 for grading acneiform rash. The clinical trial eligibility criteria were based on having an acneiform skin rash of grade 1 or 2 while on anti-EGFR therapy, and therefore the grading change from baseline with the topical application of LUT014 was measured. The Multinational Association of Supportive Care in Cancer (MASCC) Study Group EGFR Inhibitor-dermatologic adverse event grading scale is a central reviewer-assessment based on the review of pictures provided to one remote reviewer (Wong, et al., Support Care Cancer 21, 2933-2948, 2013). The Functional Assessment of Cancer Therapy (FACT) is a health-related quality of life questionnaire to assess symptoms associated with EGFR inhibitors (Wagner, et al., Support Care Cancer 21, 1033-1041, 2013). The score based on the 13 skin-specific questions (FACT-EGFRI-13) was reported, and was calculated by the change in total score relative to baseline, with a decrease in value representing worsening and an increase value representing improvement of skin-related symptoms.
# Evaluation of the preliminary efficacy of LUT014 gel for the treatment of anti-EGFR therapy-induced acneiform lesions was based on the following: A) Acneiform lesions grading performed locally by the Investigator using the NCI CTCAE version 5.0 skin and subcutaneous tissue disorders grading scale. B) Acneiform lesions grading performed by a central reader, using the MASCC Study Group EGFR Inhibitor-dermatologic adverse event grading scale (Wong, et al., 2013). Grading was based on masked photographs of patients' face, neck, and upper portion of the anterior and posterior chest. C) Patient self-reported quality of life FACT-EGFRI-13 questionnaire (Wagner et al, 2013), assessing the physical and psychological effects of the dermatological symptoms associated with anti-EGFR treatment on study patients. Only the first 13 questions of the FACT-EGFRI that are relevant for the skin were evaluated. Data from all patients who received at least one dose of study drug were included in the safety and efficacy analyses.
# [6] = topical gel 0.3, 1.0, 2.5 mg/g once daily, 4 weeks, 10 patients
smiles,measurement,setting,value
"C#Cc1cccc(Nc2ncnc3cc(OCCOC)c(OCCOC)cc23)c1 [erlotinib, reference compound]",HKGS stimulation of the MAPK pathway (pERK),[1]; HKGS plus erlotinib 10 μM,partially inhibited
Cc1ccc2c(Nc3cccc(OC(F)(F)F)c3)nccc2c1Nc1ncccc1-c1ncnc2[nH]cnc12 [LUT014],"increase in pERK, compared with HKGS",[2],higher
same,"effect on pERK inhibition by EGFR inhibitors (erlotinib, cetuximab)",[1]; HKGS plus EGFR inhibitor plus LUT014 0.3 μM,abrogated the inhibitory effect of both EGFR inhibitors
same,concentration of peak proliferation,MIA-PaCa-2 cells,0.041 µM
same,proliferation at the highest concentrations,MIA-PaCa-2 cells,growth arrest
same,"toxicities associated with oral systemic BRAF inhibitors (photosensitivity, maculo-papular rash, hyperkeratosis)",[3]; all cohorts,no local or systemic toxicities
same,patients with an adverse event considered related to the study drug,"[3]; all cohorts, 10 patients, pruritus, dry skin, stinging sensation",Seven
same,"Treatment-related adverse events: Dry skin, All Grades","[3]; human, in vivo, 4 weeks",1
same,"Treatment-related adverse events: Dry skin, Grade 3 or 4","[3]; human, in vivo, 4 weeks",0
same,"Treatment-related adverse events: Local Pain, All Grades","[3]; human, in vivo, 4 weeks",1
same,"Treatment-related adverse events: Local Pain, Grade 3 or 4","[3]; human, in vivo, 4 weeks",0
same,"Treatment-related adverse events: Pruritus, All Grades","[3]; human, in vivo, 4 weeks",6
same,"Treatment-related adverse events: Pruritus, Grade 3 or 4","[3]; human, in vivo, 4 weeks",0
same,severity grade of related adverse events,"[3]; human, in vivo, 4 weeks",1-2
same,total adverse events of any attribution,"[3]; human, in vivo, 4 weeks",38
same,dose-limiting toxicities,[3]; [6],no dose-limiting toxicities; also recorded: no dose limiting toxicity
same,tolerability,[3]; [6],well tolerated
same,plasma concentrations lower than effective systemic concentrations of other BRAF inhibitors,[4],3 to 4 orders of magnitude
same,plasma concentrations,[4]; day 0 and day 7,in the pg/mL range
same,systemic absorption / exposure after topical administration,[4]; day 0 and day 7,negligible absorption and minimal systemic exposure
same,systemic absorption / exposure after topical administration,"[4]; day 0 and day 7, listed as compound of formula IV",negligible to minimal systemic absorption
same,time to CTCAE improvement,"[5]; cohort 1, 0.3 mg/g",two of the patients showing improvement within the first week
same,FACT-EGFRI-13 skin-related symptom questionnaire change,"[5]; cohort 1, 0.3 mg/g, 28-day treatment",the three patients had symptomatic improvement
same,benefit after administration had terminated,"[5]; cohort 1, 0.3 mg/g, all three patients, day 55",sustained benefit by day 55
same,acneiform rash CTCAE grade change,"[5]; cohort 1, 0.3 mg/g, three patients with grade 2 at baseline, 28-day treatment",all improved to grade 1
same,central reviewer MASCC grading change,"[5]; cohort 1, 0.3 mg/g, treatment period",two patients improved and one patient did not change
same,"acneiform skin rash, overall",[5]; cohort 2 (1.0 mg/g),evidence of acneiform rash improvement
same,FACT-EGFRI-13 symptom questionnaire change,"[5]; cohort 2, 1.0 mg/g, baseline grade 1 rash",two patients with baseline grade 1 rash reported stable skin-related symptoms
same,FACT-EGFRI-13 symptom questionnaire change,"[5]; cohort 2, 1.0 mg/g, baseline grade 2 rash",two patients with baseline grade 2 rash improved symptoms
same,MASCC grading change,"[5]; cohort 2, 1.0 mg/g, four patients",three patients improved grading during the treatment period while one worsened
same,acneiform rash CTCAE grade change,"[5]; cohort 2, 1.0 mg/g, patients with grade 1 at baseline",two with grade 1 at baseline that did not change in grading
same,acneiform rash CTCAE grade change,"[5]; cohort 2, 1.0 mg/g, patients with grade 2 at baseline, 28-day treatment",two with grade 2 at baseline that improved to grade 1
same,FACT-EGFRI-13 symptom questionnaire change,"[5]; cohort 3, 2.5 mg/g",one patient improved and two worsened
same,acneiform rash CTCAE grade change,"[5]; cohort 3, 2.5 mg/g, three patients, 28-day treatment","one improved, another was stable and one patient had worsening acneiform skin rash"
same,MASCC grading change,"[5]; cohort 3, 2.5 mg/g, compared with the CTCAE course",The same course was evident
same,"acneiform skin rash, overall",[5]; highest dose cohort (2.5 mg/g),no consistent evidence of improvement
same,improvement of acneiform rash in grade 2 patients,[5]; low and intermediate cohorts (0.3 and 1.0 mg/g),all grade 2 patients (six patients)
same,"acneiform skin rash, overall by three assessment criteria",[5]; lowest dose cohort (0.3 mg/g),improved in all patients
